Laboratory results taken from US20040259948A1, “Reciprocal regulation of inflammation and lipid metabolism by liver X receptors” (priority 2003, published 2004).

Assays:
[1] = target: T1, LXRα/RXRα (Homo sapiens, UniProt Q13133); assay: Luciferase reporter transfection in RAW 264.7 cells, LXRα/RXRα; format: cell-based; conditions: 2 μM
T1 construct: expressed in transfected cells; host or cells: RAW 264.7
T1 sequence (Q13133 1-447): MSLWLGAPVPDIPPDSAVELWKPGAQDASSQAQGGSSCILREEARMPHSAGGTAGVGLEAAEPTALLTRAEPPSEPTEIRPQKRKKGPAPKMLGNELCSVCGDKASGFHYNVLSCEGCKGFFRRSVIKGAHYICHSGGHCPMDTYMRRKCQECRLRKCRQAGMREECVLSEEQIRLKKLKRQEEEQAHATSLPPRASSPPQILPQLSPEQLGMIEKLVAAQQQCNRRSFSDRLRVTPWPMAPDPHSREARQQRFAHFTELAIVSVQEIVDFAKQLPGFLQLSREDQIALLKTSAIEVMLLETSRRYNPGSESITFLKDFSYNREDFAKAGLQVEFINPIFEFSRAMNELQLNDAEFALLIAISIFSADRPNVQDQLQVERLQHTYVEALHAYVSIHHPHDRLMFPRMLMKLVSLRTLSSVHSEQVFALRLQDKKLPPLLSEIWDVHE
T1 sequence (P19793 1-462 partner): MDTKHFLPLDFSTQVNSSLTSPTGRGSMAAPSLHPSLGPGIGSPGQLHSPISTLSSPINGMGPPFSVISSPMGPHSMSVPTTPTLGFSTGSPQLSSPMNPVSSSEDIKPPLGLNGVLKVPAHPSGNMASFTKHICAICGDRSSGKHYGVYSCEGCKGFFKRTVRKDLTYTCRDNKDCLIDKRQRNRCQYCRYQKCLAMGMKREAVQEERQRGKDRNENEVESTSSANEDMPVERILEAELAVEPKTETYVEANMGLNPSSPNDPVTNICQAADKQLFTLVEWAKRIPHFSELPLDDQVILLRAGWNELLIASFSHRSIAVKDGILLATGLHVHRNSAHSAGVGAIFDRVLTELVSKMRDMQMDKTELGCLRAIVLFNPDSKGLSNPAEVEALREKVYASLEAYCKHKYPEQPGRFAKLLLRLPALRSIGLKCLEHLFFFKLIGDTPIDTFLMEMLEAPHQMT
Experimental: We next investigated the mechanism by which LXR inhibits iNOS and COX-2 expression. […] RAW 264.7 cells were transfected with expression vectors for either LXRα/RXRα or LXRβ/RXRα along with luciferase reporter constructs. The LXR agonist inhibited expression of both iNOS and COX-2 gene promoters in a receptor-dependent fashion (FIG. 4 A and B). […] E, A dominant-negative IKK expression vector (IKK DN) blocks LXR-dependent repression of the COX-2 promoter. Transfected cells were treated with DMSO (ctrl), GW3965 (GW), LPS, or GW3965 and LPS. […] RAW 264.7 cells were transiently transfected with expression vectors for LXRα/RXRα, LXRβ/RXRα or dominant-negative I kappa B kinase (IKK) along with iNOS (A), COX-2 (B, E, F), NF-κB (C), AP-1 (D) or COX-2/NF-κB mutant (F) luciferase reporters. […] As activation of iNOS and COX-2 gene promoters by LPS is known to depend on interactions between AP-1 and NF-κB transcription factors, the effect of LXR on minimal promoters containing binding sites for these factors was evaluated. […] Moreover, the inhibitory effect of LXR on the COX-2 promoter was lost when NF-κB activity was blocked by transfection of a dominant-negative IKK or when binding sites for NF-κB were mutated (FIGS. 4E and F). These observations indicate that inhibition of inflammatory gene expression by LXR ligands involves antagonism of NF-κB signaling.
Reagents and plasmids. […] Oxysterols, LDL and ox-LDL were from Sigma and Intracell, respectively. LPS from Salmonella typhimurium was from Sigma. Expression plasmids for LXRα, LXRβ and IKK-DN (Castrillo, A. et al. 2001 J Biol Chem 276:15854-15860; Laffitte, B. A. et al. 2001 Mol Cell Biol 21:7558-7568), and reporter plasmids for NOS-2, (NFκB)3-LUC, (AP-1)4-LUC and COX-2 have been described (Callejas, N. A. et al. 2000 Gastroenterology 119:493-501).
Cell culture and transfections. Thioglycolate-elicited peritoneal macrophages were cultured in RPMI containing 10% fetal bovine serum (FBS). RAW 264.7 cells were cultured in DMEM containing 10% FBS. For ligand treatments, cells were in cultured medium supplemented with 5% lipoprotein-deficient serum (LPDS) and ligands for 18 h before stimulation. Bacterial infection in vitro was performed as described (Chen, L. M. et al. 1996 Mol Microbiol 21:1101-1115). Transient transfections of RAW 264.7 cells were performed in triplicate in 48-well plates using Superfect reagent (Life Technologies). After transfection, cells were incubated in medium containing 10% LPDS and the indicated ligands for 18 h before stimulation with LPS for an additional 18 h. Luciferase activity was normalized to β-galactosidase activity. NO production was determined spectrophotometrically (Castrillo, A. et al. 2000 Mol Cell Biol 20:1692-1698).

[2] = system: C57B1/6 mice; assay: Murine model of irritant contact dermatitis (TPA-treated ear); format: in vivo; conditions: topical 20 μl of 10 mM at 45 min and 4 h post-TPA; 18 h; relative to vehicle-treated ear
Experimental: The effects of LXR ligands in both acute and chronic inflammatory contexts were evaluated. First, the effects of LXR agonists in a murine model of irritant contact dermatitis (Sheu, M. Y. et al. 2002 J Invest Dermatol 118:94-101) were studied. Ears of C57B1/6 mice (n=5 per group) were treated topically with 12-O-tetradecanoylphorbol-13-acetate (TPA) (left ear) or with vehicle (right ear). […] Thickness and weight of 6-mm punch biopsies were determined for each group after 18 h TPA treatment and are presented relative to vehicle-treated ear. […] Analysis of hematoxylin and eosin (H&E) stained sections of the TPA-treated ears confirmed a reduction in edema and inflammatory infiltrate by LXR agonist. Thus, two structurally unrelated LXR agonists have anti-inflammatory activity in a model of cutaneous inflammation.
Animals. Mice on a mixed background (C57B1/6 and 129v) and Apoe^−/− mice on a C57B1/6 background were maintained on standard chow. […] Irritant contact dermatitis was induced as described (Sheu, M. Y. et al. 2002 J Invest Dermatol 118:94-101). Briefly, 10 μl of 0.03% 12-O-tetradecanoylphorbol-13-acetate (TPA) in acetone was applied to the left ears of male mice. The right ears were treated with vehicle alone. […] After 18 h of TPA treatment, the thickness and weight of 6-mm punch biopsies were determined. Statistical analysis was performed using Student's t-test. Experiments were conducted in accordance of the Animal Research Committee of the University of California, Los Angeles.

O=C(O)Cc1cccc(OCCCN(Cc2cccc(C(F)(F)F)c2Cl)CC(c2ccccc2)c2ccccc2)c1 [GW3965]
induction of the COX-2 promoter by LPS (luciferase reporter) [1]: inhibits induction | induction of the iNOS promoter by LPS (luciferase reporter) [1]: inhibits induction | luciferase reporter containing multiple NF-κB binding sites ([1]; LPS): inhibits expression | COX-2 luciferase reporter lacking the NF-κB binding site ([1]; LPS, COX-2/NF-κB mutant): fails to inhibit | inhibitory effect on the COX-2 promoter with dominant-negative IKK ([1]; LPS, IKK-DN co-transfected, LXR vector not specified): lost | ear thickness [2]: reduced | ear weight (6-mm punch biopsies) [2]: reduced
